Laboratory results published in publication PMC4077696 (PLoS Biology, 2014).
Counter-ions that a name gives are not always drawn.

What was measured:
PvPMV = PvPMV (Plasmodium vivax, UniProt A5K302); test: PEXEL cleavage assay with immunopurified PvPMVHA and fluorogenic KAHRP PEXEL peptide; assay type: biochemical
Protocol: To investigate PvPMVHA activity, we affinity purified it, as well as the PfPMVHA control, using anti-HA agarose, as previously described [13],[18].
PMV-agarose was prepared by adding α-HA-agarose (Sapphire Bioscience) to parasite lysates, prepared by sonication in 1% Triton X-100/PBS, for 1 h before extensive washing in same [12],[13]. […] Samples were excited at 340 nm and fluorescence emission measured at 492 nm using an Envision fluorescence plate reader (Perkin-Elmer) heated to 37°C for 150 min. Samples were shaken between measurements.

beta-secretase (BACE-1) = beta-secretase (BACE-1) (Homo sapiens, UniProt P56817); test: Off-target activity against human aspartyl protease BACE-1; assay type: biochemical
[1] = tested on: EXP2 secretion in P. falciparum–infected erythrocytes; test: EXP2 secretion to the parasitophorous vacuole membrane; assay type: cell-based, Plasmodium falciparum; conditions: 20 or 50 µM, 13 h
Protocol: For quantification of events in cells infected with parasites expressing Hyp8-GFP, highly synchronous ring-stage parasites engineered to express Hyp8-GFP from the CRT promoter were obtained by incubation of erythrocytes with viable merozoites for 15 min [47] and treated with 20 or 50 µM 916 30 min postinvasion for 13 h (until Hyp8-GFP expression from the CRT promoter had occurred for 1 h). Smears were fixed in 90∶10 acetone∶methanol, labeled with anti-GFP and anti-EXP2 antibodies, and Z-stacks captured on a Deltavision Elite microscope using a 100× objective. Over 40 Z-stacks per condition were imaged using the same exposure settings to allow quantitative analysis between groups.
The EXP2 signal was measured by masking the infected cell using a watershed transform on the summed and filtered red signal, seeded by the DAPI-positive parasite.

[2] = target: T1, PMV in P. falciparum expressing PMVHA-glmS (Plasmodium falciparum, UniProt Q8I6Z5); test: PEXEL processing of PfEMP3-GFP in PMVHA-glmS parasites with PMV knockdown, immunoblot; assay type: cell-based; conditions: 20 µM 916, 5 h
T1 construct: incorporated in frame at the 3′ of the PMV locus by homologous recombination; expressed in transfected cells; host or cells: P. falciparum NF54 with pPMVHA-glmS integrated at the PMV locus, also transfected with PfEMP3-GFP
T1 sequence (Q8I6Z5 whole entry): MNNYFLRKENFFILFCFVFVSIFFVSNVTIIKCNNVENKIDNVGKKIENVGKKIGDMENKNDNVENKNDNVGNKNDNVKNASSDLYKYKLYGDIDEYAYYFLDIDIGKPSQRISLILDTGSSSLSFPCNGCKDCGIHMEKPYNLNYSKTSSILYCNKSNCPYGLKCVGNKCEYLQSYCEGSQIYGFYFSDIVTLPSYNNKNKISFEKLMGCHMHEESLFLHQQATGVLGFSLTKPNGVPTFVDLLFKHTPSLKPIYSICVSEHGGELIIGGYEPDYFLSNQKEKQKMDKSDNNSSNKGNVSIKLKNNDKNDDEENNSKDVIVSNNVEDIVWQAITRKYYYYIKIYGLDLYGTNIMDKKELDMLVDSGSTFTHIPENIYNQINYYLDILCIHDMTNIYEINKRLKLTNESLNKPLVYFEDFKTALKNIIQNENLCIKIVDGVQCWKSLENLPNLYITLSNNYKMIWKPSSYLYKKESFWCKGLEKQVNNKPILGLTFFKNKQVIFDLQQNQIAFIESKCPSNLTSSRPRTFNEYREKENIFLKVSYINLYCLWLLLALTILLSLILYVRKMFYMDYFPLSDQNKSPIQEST
Protocol: As 916 inhibited PMV in parasites (for example, by 13-fold, Figure 3G), the additive effect of PMV knockdown plus 916 treatment was investigated. Parasites expressing PMVHA-glmS were transfected with a construct encoding PfEMP3-GFP, and PEXEL processing was assessed by immunoblot.
Trophozoites (30–34 h) expressing PfEMP3-GFP, KAHRP-GFP, or SERA5s-GFP were magnet-purified (Miltenyi Biotech), incubated with inhibitors in 400 µl total volume at 37°C for 1–5 h, treated with 0.09% saponin containing inhibitor, and washed pellets were solubilized in Laemmli's buffer, boiled for 3 min, and frozen at −20°C. Proteins were separated by SDS-PAGE, transferred to nitrocellulose and blocked in 10% skim milk/PBS-T, and probed with rat α-HA (Roche 3F10; 1∶1,000), mouse α-GFP (Roche; 1∶1,000), rabbit α-Aldolase (1∶1,000), rabbit α-HSP70 (1∶4,000), rabbit α-PfPMV (1∶1,000), or rabbit α-Hyp8 (1∶500) primary antibodies followed by horseradish peroxidase-conjugated secondary antibodies (Silenius) and detected by enhanced chemiluminescence (Amersham).

Sequence of PvPMV (A5K302 35-536): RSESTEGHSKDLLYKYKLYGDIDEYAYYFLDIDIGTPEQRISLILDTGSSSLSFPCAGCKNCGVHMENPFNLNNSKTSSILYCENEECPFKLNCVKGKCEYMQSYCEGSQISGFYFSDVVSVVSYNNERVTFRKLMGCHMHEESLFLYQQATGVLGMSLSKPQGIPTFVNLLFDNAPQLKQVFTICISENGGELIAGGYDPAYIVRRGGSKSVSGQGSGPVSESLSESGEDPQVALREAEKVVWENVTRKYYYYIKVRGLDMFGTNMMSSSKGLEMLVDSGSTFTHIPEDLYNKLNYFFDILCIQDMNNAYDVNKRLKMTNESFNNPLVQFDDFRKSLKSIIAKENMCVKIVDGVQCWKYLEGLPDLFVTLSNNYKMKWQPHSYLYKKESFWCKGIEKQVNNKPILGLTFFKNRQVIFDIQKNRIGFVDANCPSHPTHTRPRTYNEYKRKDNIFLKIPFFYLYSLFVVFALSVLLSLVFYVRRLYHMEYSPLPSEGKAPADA
Sequence of beta-secretase (BACE-1) (P56817 46-501): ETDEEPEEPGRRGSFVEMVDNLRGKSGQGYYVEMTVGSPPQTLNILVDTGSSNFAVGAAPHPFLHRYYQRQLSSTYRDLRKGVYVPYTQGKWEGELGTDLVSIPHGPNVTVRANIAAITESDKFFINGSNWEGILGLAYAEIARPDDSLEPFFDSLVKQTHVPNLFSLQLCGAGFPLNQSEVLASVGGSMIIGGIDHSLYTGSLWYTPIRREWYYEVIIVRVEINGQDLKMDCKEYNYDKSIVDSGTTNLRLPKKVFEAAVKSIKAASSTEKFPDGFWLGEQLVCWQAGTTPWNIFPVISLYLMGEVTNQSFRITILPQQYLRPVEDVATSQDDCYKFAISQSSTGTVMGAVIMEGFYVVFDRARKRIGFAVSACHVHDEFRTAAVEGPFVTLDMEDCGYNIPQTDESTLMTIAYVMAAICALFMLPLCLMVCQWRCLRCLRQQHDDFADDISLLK

| SMILES | Activity against PvPMVHA, in words (PvPMV) | IC50 (PvPMV) [µM] | IC50 (beta-secretase (BACE-1)) [µM] | EXP2 signal at the parasitophorous vacuole membrane, in words [1] | Enhancement of PEXEL cleavage impairment following PMV knockdown [2] [%] |
| --- | --- | --- | --- | --- | --- |
| CC[C@H](C)[C@H](NC(=O)[C@@H](NC(=O)[C@H](CCCNC(=N)N)NS(=O)(=O)Cc1ccccc1)C(C)C)[C@@H](O)CC(=O)NCCc1ccccc1 [compound 025, PhCH2SO2Arg-Val-AHMHpA-NH(CH2)2Ph . TFA] | weak activity | 1.77 |  |  |  |
| CC(C)C[C@H](NC(=O)[C@@H](NC(=O)[C@H](CCCNC(=N)N)NS(=O)(=O)Cc1ccccc1)C(C)C)[C@@H](O)CC(=O)NCCc1ccccc1 [compound 916, PhCH2SO2-Arg(NH2)-Val-Sta-NH(CH2)2Ph .TFA] |  |  | > 100 | no statistical difference | 50 |
